Test results: a melting point compilation (Tetko et al.; mined from patent text by program, amines drawn as free bases though some values may be those of a salt)

melting point	SMILES
139 to 142 °C	COc1cccc([C@H]2O[C@H](CC(=O)Nc3cccc(C(=O)O)c3C)C(=O)N(CC(C)(C)COC(C)=O)c3ccc(Cl)cc32)c1OC
181 to 183 °C	Cn1cc(-c2nn(-c3cccc(C(F)(F)F)c3)ccc2=O)c(-c2ccccc2)n1
95 to 96 °C	Cc1ccsc1-c1nc(CCl)co1
104 to 106 °C	Cc1cccc(S(=O)(=O)C2(CC#Cc3ccc(Cl)cc3)SC(=O)NC2=O)n1 (configuration not stated)
195 to 197 °C	Cc1cc(NN)c2ccccc2n1
83 to 85 °C	CC(NC(=O)c1cccnc1Oc1cccnc1)c1ccc(Cl)s1 (single isomer, unassigned; (+))
75 to 93 °C	COc1cc2c(cc1Nc1ncc(Cl)c(Nc3ccccc3S(=O)(=O)N(C)C)n1)CCN(CC(=O)N1CCCC1)CC2
173 to 175 °C	CN1C(=O)c2ccccc2C[C@H]1C(=O)O
110 to 111 °C	COc1ncc(CNc2ccccc2C(=O)Nc2cccc(C(F)(F)F)c2)cc1Br
235 to 237 °C	CNCc1ccc(C2CCN(c3cc4c(cc3F)c(=O)c(C(=O)O)cn4C3CC3)C2)cc1 (configuration not stated)
222 °C	N#Cc1c(Cl)ccc2cc(Cl)cnc12
195 to 199 °C	COC(=O)N(C)c1cccc(-c2ccc3nncn3n2)c1
209 to 211 °C	CNc1nc(-c2cccc(NC(=S)c3ccc(C)cc3)c2)c2cc(OC)c(OC)cc2n1
152 to 154 °C	CCOC(=O)N1CCN(C2=C(Cl)C(=O)c3nsnc3C2=O)CC1
123 to 124 °C	Cc1ccnc2c1C(=O)CC(c1cccc(Cl)c1Cl)C2 (configuration not stated)
187 to 188 °C	Cc1cc(F)ccc1-c1nc(NCC(F)(F)F)nc2c1ccc(=O)n2-c1ccccc1F
195 to 196 °C	CC(c1cccnc1)n1nnc2cc3c(cc2c1=O)OC1CCCN1C3=O (configuration not stated)
308 to 311 °C	O=C(c1ccccc1)c1cc2c3ccccc3[nH]c(=O)n2n1
167 to 168 °C	COC(=O)C1=NC2=COc3c(OC)cccc3N2C1C(=O)O (configuration not stated)
195 to 196 °C	COc1ccc2c(c1)C(=O)c1c-2cnc2ccccc12
244 to 245 °C	Nc1ccc(S(=O)(=O)c2cc(Br)nc(N3CCOCC3)c2)cc1
133 °C	FC(F)(F)c1ccc(-c2ncn(CCCN3CCOCC3)c2-c2ccncc2)cc1
134 to 135 °C	Cc1c(Cl)ccnc1C(=O)NCCNC(=O)OC(C)(C)C
174 to 176 °C	Cc1cccc(C)c1OC(=O)c1ccccc1C(=O)Oc1c(C)cccc1C
73 to 75 °C	CCOC(=O)/C=C(/c1ccc(CC)cc1)c1cc(Cl)cc(Cl)c1
161 to 162 °C	COc1ccc(CN2C(=O)C3(COc4cc5c(cc43)OCCO5)c3ccccc32)cn1 (configuration not stated)
204 to 205 °C	CCCc1ccnc2c(=O)[nH]c(-c3cc(S(=O)(=O)N4CCC(C(=O)OCC)CC4)ccc3OCC)nc12

melting point	SMILES
130 °C	CC(Oc1ccc(Oc2ccc3cc(Cl)ccc3n2)cc1)C(=O)O (configuration not stated)
145 to 147 °C	CCc1cccc(C)c1CNc1cc(Br)cc2c1nc(C)n2C
184 to 187 °C	CS(=O)(=O)Nc1ccc(CCN2CCc3ccc(NS(C)(=O)=O)cc3CC2)cc1
206 to 208 °C	Cc1nnc(COc2cccc3c2CN(C2CCC(=O)NC2=O)C3=O)o1 (configuration not stated)
197 to 201 °C	CC(c1oc2ccccc2c(=O)c1-c1cccc(F)c1)n1ncc2c(Cl)ncnc21 (configuration not stated)
> 255 °C	CCc1nc2c(N)nc3cccnc3c2n1CC1(O)CCN(C(=O)N2CCOCC2)CC1
107 to 108 °C	CC(C)c1nc(-c2cccs2)cc(-c2ccc(F)cc2)c1C=C(Br)Br
167 to 172 °C	O=C(c1ccccc1)c1ccc2nc(-c3ccc(Br)o3)[nH]c2c1
> 260 °C	COc1ccc2c(n1)C(=O)c1nccc3c1c-2nc1ccccc13
260 to 262 °C	COCCOc1cc(OC)c2c(=O)[nH]c(-c3ccnc(C)c3)nc2c1
149 to 150 °C	O=C1c2ccccc2C(=O)N1CCSc1ncccn1
167 to 170 °C	CCOC1CCN(C(=O)c2cc(-c3ccccc3)c(=O)n3ccc4ccsc4c23)C1 (configuration not stated)
245 to 247 °C	COC=C1C(=O)NC(=O)c2ccc(OC)cc21
169 to 171 °C	CCc1nc2c(N)nc3ccccc3c2n1CCOCCNS(C)(=O)=O
113 to 115 °C	Cc1ncc2c(=O)n(C)c(=O)n(C)c2n1
208 °C	Nc1cncnc1NCCN1CCC(Nc2nc3ccccc3n2Cc2ccc(F)cc2)CC1
271 to 274 °C	COc1cc(Nc2ncc(-c3ccccc3C(=O)O)o2)ccc1-c1cnco1
93.7 to 94.6 °C	O=c1c(Cl)c(Cl)cnn1CC(Cl)=CCl
280 °C	Nc1nc(N2CCC2)c2nc[nH]c2n1
135 to 136 °C	CCOC(=O)c1c(C(C)C)nc(-c2ccccc2)c(-c2ccccc2)c1-c1ccc(F)cc1
46 to 49 °C	Cc1nnc(NCCN(C)C)nc1C
97 to 98 °C	CC[C@@]12CC(=O)[C@](O)(c3ccccc3)C[C@H]1CCc1cc(O)ccc12
117 to 118 °C	COc1ccc(C(=O)c2ccncc2)cc1OC
> 350 °C	O=c1[nH]ncc2c1c(O)nc1ccccc12
163 to 165 °C	CN1CCN(c2ccccc2C(F)(F)F)C(C2=NCCN2)C1 (configuration not stated)
146 to 148 °C	CC(C)C1(C)C(=O)N=C2c3ncc(C4OCCO4)cc3C(=O)N21 (configuration not stated)
199 to 200 °C	CC(=O)Nc1nc(CCc2ccc(NC(=O)OC(C)(C)C)cc2)c(C(=O)Nc2ccccc2)s1

Second part, the molecule before the results:

SMILES	melting point
Nc1ncnc2[nH]c(Br)c(-c3ccc(Oc4ccccc4)cc3)c12	282 to 283 °C
CCN1C(=O)C(=CC=C2C=C3c4ccccc4CCN3C3=C2CCCC3)C(=O)N(CC)C1=S	320 °C
S=C(NCc1ccccc1Cl)N1CCc2c([nH]c3ccccc23)C1c1ccc2c(c1)OCO2 (configuration not stated)	123 to 128 °C
O=CN1CC(CCN2CC=C(c3c[nH]c4cc(Cl)ccc34)CC2)c2ccccc21 (configuration not stated)	183 to 185 °C
Nc1nc(/C(=N/OCc2nnn[nH]2)C(=O)O)cs1	151 to 152 °C
CCCNC(=O)Nc1ccccc1	106 to 107 °C
CNC(=O)C(Cc1ccc(OC)cc1)NC(=O)C(C)(CC(C)C)c1ccc(OC)cc1SCc1ccc(OC)cc1 (configuration not stated)	150 to 158 °C
CCCCC(N)S(=O)(=O)O (configuration not stated)	142 °C
CCOC(=O)C=Cc1ccc(CCNS(=O)(=O)CCc2ccccc2)cc1	98 to 99 °C
CC(=O)c1cc(C(F)(F)F)nn1-c1ccc(NC(=O)c2ccccc2F)cc1	188 to 189 °C
O=C1c2ccccc2-c2cc(O)cc3ccc(O)c1c23	280 °C
O=C(O)COc1cccc2c1CCc1sc(S(=O)(=O)CC=Cc3ccccc3)nc1-2	210 to 214 °C
CN(C)C(=O)ON=C1SC(=C(C#N)C#N)SC1(C)C	175 to 177 °C
CC(=Cc1ccccc1)c1ccc2c(c1)C(C)(C)CCC2(C)C	83 to 85 °C
CCOP(=O)(/C=C/c1ccc2cc(NC(=O)C(NC(=O)OC(C)(C)C)C(C)(C)C)cc(-c3cccc4ccccc34)c2n1)OCC (configuration not stated)	249 to 250 °C
NS(=O)(=O)Oc1ccc2cc(C3CCCCC3)sc2c1	128 °C
O=Cc1cccc(Sc2ccccc2Cl)c1O	111 to 112 °C
O=C(O)CC1=CSCSC1	97 °C
COc1ccc(OC)c(C(=O)CC(CC(=O)c2ccc(Cl)cc2)c2cccc(C(=O)O)c2)c1 (configuration not stated)	164 to 165 °C
Nc1cccc(OCCCN2CCC(c3noc4cc(F)ccc34)CC2)c1	115 to 117 °C
COc1cc2c(cc1OC)C1Cc3cc(OC)c(OC(=O)C=Cc4cc(OC)c(OC)c(OC)c4)cc3CN1CC2 (configuration not stated)	207 to 210 °C
O=C1NC(=S)SC1=Cc1cccc(Cl)c1Cl	203 to 204 °C
C[C@H](C(=O)O)C(C)(C)c1ccccc1	69 to 72 °C
NC(c1ccco1)P(O)O (configuration not stated)	221 °C

SMILES	melting point
CC(CCCc1ccccc1)Oc1cc(O)c2c(c1)CC(C)(C)CC2C(N)=O (configuration not stated)	155 to 157 °C
C#CCNC(=O)c1ncn2c1CN(C)C(=O)c1c-2ccc(F)c1Cl	235 to 237 °C
CC1(COCc2ccccc2)COC(C)(C(=O)N(C(N)=O)c2ccccc2)O1 (configuration not stated)	91 to 94 °C
CC(=O)OC1CCC2(C)C(=CCC3C2CCC2(C)C(C(C)CO)=CCC32)C1 (configuration not stated)	170 to 171 °C
O=C1Nc2cc(F)ccc2Oc2ccccc21	228 to 229 °C
O=C(O)CCc1conc1-c1ccc(-c2ccccc2)cc1	169 to 170 °C
CS(=O)(=O)c1ccc(-c2cc(F)c(F)cc2-c2ccc3c(c2)OCO3)cc1	110 to 111 °C
FC(F)(F)c1ccccc1-c1nnc(Nc2cccc(SCc3ccccc3-c3ccccc3)c2)s1	73 to 75 °C
CC(C)(C)c1ccc(C(=O)C(Cl)Cl)cc1	47 to 49 °C
CCN(Cc1ccc(Cl)nc1)C(=NC#N)NC	122 to 123 °C
CC(=O)C(c1ccccc1)c1cccc2c1NCC2 (configuration not stated)	55 to 56 °C
OC1(C#Cc2ccc(-c3ccccc3)cc2)CN2CCC1CC2 (configuration not stated)	217 to 218 °C
OC(CCN1CC=C(c2ccc(Cl)cc2)CC1)c1ccc(Cc2ccccn2)cc1 (configuration not stated)	129 to 131 °C
CC(=O)SCC(CC(C)C)C(=O)NCCCCCCCC(=O)N[C@@H](CCCNC(=N)N)C(=O)O (some centres not stated)	85 to 102 °C
CCC1(C)COP(=O)(Cc2ccc([N+](=O)[O-])cc2)OC1 (configuration not stated)	184 to 185 °C
Oc1cccc(OCc2ccc3ccccc3n2)c1	151 to 153 °C
N#CCC(=O)N[C@H]1CC[C@H](CCN2CCN(c3nccc4c3CCO4)CC2)CC1	188 °C
C#Cc1cccc(C(=O)OCC)c1	36 to 38 °C
O=C(O)C(Cc1n[nH]c2ccccc12)NC(=O)C(CS)C(F)(F)F (configuration not stated)	218 to 220 °C
Nc1ccc(P(=O)(O)O)cc1	257 to 260 °C
CN1C(C)(C)CC(OC(=O)NNC(=O)C(=O)NC2CC(C)(C)NC(C)(C)C2)CC1(C)C	165 to 170 °C
[O-][N+]1=Cc2cccc3c2C(C1)c1ccccc1CC3 (configuration not stated)	156 to 158 °C
CC(C)(C)OC(=O)N[C@@H](Cc1ccc(O)cc1)C(=O)NCC(=O)NCC(=O)O	92 to 94 °C
CS(=O)(=O)NC1CCCc2ccc([N+](=O)[O-])cc21 (configuration not stated)	150 to 152 °C
